# Patent US8957108B2, “Use of 5,6-dimethylxanthenone-4-acetic acid as an antiviral agent” (University of Maryland, Baltimore, priority 2006, dated 2015)
# How the values were obtained:
# [1] = tested on: MEFs; assay: RANTES protein in MEF supernatants; assay type: cell-based, mouse; conditions: 24 h
# Description: IFN-β protein in cell culture supernatants was measured using a custom ELISA originally described in Weinstein, S. L. et al. (2000) “Phosphatidylinositol 3-Kinase And mTOR Mediate Lipopolysaccharide-Stimulated Nitric Oxide Production In Macrophages Via Interferon-Beta,” J. Leukocyte Biol. 67:405-414, with few modifications. […] Plates were blocked with 10% FCS in 1×PBS for 2 h at room temperature. Samples and a murine IFN-β standard (NIH, Bethesda, Md.) were added to wells and incubated overnight at 4° C. […] Wells were washed 3× followed by incubation with a 1:2000 dilution of goat anti-rabbit HRP (Cell Signaling Technologies, Beverly, Mass.) in 10% FCS-PBS for 1 h at room temperature. Plates were washed 3× and developed with TMB substrate (KPL, Gaithersburg, Md.). The reaction was stopped by addition of 1N H2SO4, and plates were read at 450 nm. RANTES and TNF-α were quantified using Luminex bead-based colorimetric assays. […] For stimulation of cells, poly(I:C) was mixed with Fugene 6 transfection reagent (Roche) at a ratio of 1:1 (volume:weight) in OptiMEM medium and incubated for 15 min prior to stimulation. Culture supernatants of cells (2×10^4) seeded on 96-well plates were collected after 24 h stimulation and analyzed for RANTES levels with ELISA. ELISA was performed according to the manufacturer's instructions (R&D Systems).
# [2] = tested on: IκBα, NF-κB, p38, ERK, and JNK MAPK; assay: IκBα, NF-κB and MAPK activation in macrophages; assay type: cell-based, mouse
# [3] = tested on: vesicular stomatitis virus (VSV); assay type: cell-based, strain Indiana; conditions: RAW 264.7 macrophages pretreated 6 h with 100 μg/ml; highest exposure MOI=10.0
# [4] = tested on: murine colon tumors; conditions: mouse; cited from earlier work
# [5] = tested on: Ft LVS; conditions: DMXAA alone (100 μg/ml), over a 24 hr period
# [6] = tested on: Influenza/A/Wuhan; assay: Assay of direct inhibition of viral infection (influenza, MDCK cells, CPE); assay type: cell-based; conditions: CPE of influenza virus on MDCK cells; read-out: IC50 direct antiviral activity
# Description: Influenza at 10^3 TCID50 was added in 50 μl volumes to all wells and incubated at room temperature for 1 h. The mixture was inoculated onto MDCK cells on 96-well plates. Tamiflu (1.75 mg/ml) and Relenza (0.5 mg/ml) were used as a positive control for the assay.
# [7] = tested on: peritoneal macrophages; assay: Quantitative real-time PCR of cytokine mRNA in murine peritoneal macrophages
smiles,measurement,setting,value
"Cc1ccc2c(=O)c3cccc(CC(=O)O)c3oc2c1C [DMXAA, 5,6-dimethylxanthenone-4-acetic acid]",RANTES secretion in RIG-I−/− MEFs,[1],intact
same,induced RANTES in TRIF−/− MEFs,[1],unaffected by the absence of TRIF
same,RANTES response in MAVS-deficient MEFs,[1]; MAVS+/+ and MAVS−/− MEFs,induces RANTES via a MAVS-independent pathway
same,"activation of p38, ERK, and JNK MAPK",[2]; C57BL/6 macrophages,no discernible effect
same,NF-κB translocation / binding activity,[2]; RAW 264.7 macrophage-like cell line,little effect
same,level of IκBα protein,[2]; primary macrophages,little effect
same,VSV infection and CPE,[3],completely prevents VSV infection and CPE
same,potency in vivo against murine colon tumors relative to FAA,[4],12 fold
same,effect on Ft LVS replication,[5],no effect
same,IC50,[6],5 µg/mL
same,induced IFN-β mRNA and protein in MyD88−/− macrophages,"[7]; 2 h mRNA, 24 h protein",not significantly altered
same,induced TNF-α mRNA and protein in MyD88−/− macrophages,"[7]; 2 h mRNA, 24 h protein",not significantly altered
same,response to restimulation with either LPS or DMXAA after pretreatment,"[7]; 24 h pretreatment, restimulated 1 h",induces a state of refractoriness
same,TNF-α mRNA in the absence of TLR4,"[7]; TLR4−/− peritoneal macrophages, 2 h",induces TNF-α to wild-type levels
same,induction of IFN-β protein and IP-10 mRNA compared with LPS,[7]; murine macrophages,much more potent inducer
same,IFN-β steady-state mRNA relative to LPS,"[7]; peritoneal exudate macrophages, 2 h, real-time PCR",~10 fold
